pIC50: −log10 of the molar value. Where only a bound is given, the exact number is not on record here.

The results in this text go back to ChEMBL document CHEMBL1152225, “Optimization of a series of potent and selective ketone histone deacetylase inhibitors” (Bioorg Med Chem Lett, 2008).

Data set [1] addresses Histone deacetylase 1 (Homo sapiens, UniProt Q13547).
Description: Inhibition of human recombinant C-terminally flag tagged HDAC1
Data set [2] deals with HeLa. Briefly: Antiproliferative activity against human HeLa cells after 72 hrs by celltiter-blue viability assay. Type of data set: functional, cell-based. A general note: Alamar Blue is a resazurin reagent that responds to reducing activity.
A short description of data set [3]: Metabolic stability in rat liver microsomes assessed as intrinsic clearance. It counts as ADME, Microsome. (Liver microsomes are a subcellular fraction often used to study metabolism.)

Sequence of Histone deacetylase 1 (Q13547 whole entry): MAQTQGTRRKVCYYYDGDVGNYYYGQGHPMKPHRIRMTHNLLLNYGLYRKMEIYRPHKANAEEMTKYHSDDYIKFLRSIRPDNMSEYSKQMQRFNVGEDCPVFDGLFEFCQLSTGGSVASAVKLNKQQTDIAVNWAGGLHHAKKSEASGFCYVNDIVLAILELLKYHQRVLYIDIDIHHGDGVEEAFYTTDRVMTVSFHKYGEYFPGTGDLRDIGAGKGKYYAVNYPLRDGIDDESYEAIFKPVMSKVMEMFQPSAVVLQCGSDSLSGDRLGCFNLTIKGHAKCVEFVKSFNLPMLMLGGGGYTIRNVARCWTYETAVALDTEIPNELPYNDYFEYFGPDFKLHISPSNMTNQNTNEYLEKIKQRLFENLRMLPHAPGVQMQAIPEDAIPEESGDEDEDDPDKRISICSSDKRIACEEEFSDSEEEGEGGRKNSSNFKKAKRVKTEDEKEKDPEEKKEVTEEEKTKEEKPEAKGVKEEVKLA

By pIC50 is commonly meant −log10 of the IC50, conventionally taken in molar units. Low values mean a large IC50, high ones a small IC50. In the case of `CC(=O)CCCCC[C@H](NC(=O)C1CCN(C)CC1)c1ncc(-c2ccccn2)[nH]1`, the negative-log IC50 (pIC50) was < 6.30 in data set [1] and 5.01 in data set [2].
In the same order, the values of `CC(=O)CCCCC[C@H](NS(=O)(=O)c1cccc(C#N)c1)c1ncc(-c2ccccc2)[nH]1` are 6.96 and 5.96.
In the same order, the values of `COc1ccc(S(=O)(=O)N[C@@H](CCCCCC(C)=O)c2ncc(-c3ccccc3)[nH]2)cc1` are 6.60 and 5.85.
The microsomal CLint is a measure of how fast metabolising enzymes remove a compound, apart from limits set by blood flow. For the molecule `CC(=O)CCCCC[C@H](NC(=O)C1CCN(C)CC1)c1ncc(-c2ccc(Br)cc2)[nH]1`, the results for the pIC50 in data set [1] and in data set [2] were 7.00 and 6.26, respectively. Further, the microsomal CLint in data set [3] is > 300 µL/min/mg.
As for `CC(=O)CCCCC[C@H](NC(=O)C1CCN(C)CC1)c1nc(C)c(-c2ccccc2)[nH]1`, the pIC50 was < 5.82 in data set [1] and 4.83 in data set [2].
On the same counts, the results for `CC(=O)CCCCC[C@H](NC(=O)C1CCN(C)CC1)c1ncc(C(C)(C)C)[nH]1` are < 5.30 and < 4.60.
In the same order, the values of `CC(=O)CCCCC[C@H](NC(=O)c1cncs1)c1ncc(-c2ccccc2)[nH]1` are 6.85 and 6.28.
On to `CC(=O)CCCCC[C@H](NC(=O)CCN1CC2CCC1C2)c1ncc(-c2ccccc2)[nH]1` (stereo not given in full), for which the pIC50 in data set [1] is 6.66; in data set [2] it was 5.77. Besides, the microsomal CLint in data set [3] came out at 143 µL/min/mg.
Consider `CC(=O)CCCCC[C@H](NS(=O)(=O)c1ccccc1C#N)c1ncc(-c2ccccc2)[nH]1`, for which the values for the pIC50 in data set [1] and in data set [2] were 6.57 and 5.14, respectively.
As for `CC(=O)CCCCC[C@H](NC(=O)C1CCN(C)CC1)c1ncc(-c2ccc(F)cc2)[nH]1`, the pIC50 in data set [1] is 6.42; in data set [2] it was 5.66. Further, the intrinsic metabolic clearance (microsomal CLint) in data set [3] amounted to 99 µL/min/mg.
In the case of `CC(=O)CCCCC[C@H](NC(=O)C1CCN(C)CC1)c1ncc(-c2cccc(Cl)c2)[nH]1`, the values for the pIC50 in data set [1] and in data set [2] were 7.05 and 6.40, respectively.
As for `CC(=O)CCCCC[C@H](NC(=O)CN1CCN(C)CC1)c1ncc(-c2ccccc2)[nH]1`, the pIC50 was 6.30 in data set [1] and 5.70 in data set [2]. For the same molecule, the microsomal CLint in data set [3] was found to be 64 µL/min/mg.
On the same counts, the results for `CC(=O)CCCCC[C@H](NC(=O)C1CCN(C)CC1)c1ncc(-c2ccc(Cl)cc2)[nH]1` are 7.12, 6.17 and 246 µL/min/mg.
With `CC(=O)CCCCC[C@H](NC(=O)C1CCN(C)CC1)c1ncc(-c2ccc(C#N)cc2)[nH]1`, the pIC50 in data set [1] is 6.92; in data set [2] it was 5.82. The microsomal CLint in data set [3] is 330 µL/min/mg.
Consider `CC(=O)CCCCC[C@H](NC(=O)c1cccc(C#N)c1)c1ncc(-c2ccccc2)[nH]1`, for which the pIC50 in data set [1] was 6.80; in data set [2], 5.96.
In the same order, the values of `CC(=O)CCCCC[C@H](NC(=O)C1CCN(C)CC1)c1ncc(-c2ccsc2)[nH]1` are 6.62 and 5.49.
Take `CC(=O)CCCCC[C@H](NC(=O)c1ccc2c(c1)OCCO2)c1ncc(-c2ccccc2)[nH]1`: the negative logarithm of the IC50 (pIC50) in data set [1] is 6.52; in data set [2], 5.96.
Consider `CC(=O)CCCCC[C@H](NC(=O)C1CCCCN1C)c1ncc(-c2ccccc2)[nH]1` (stereo not given in full), for which the negative logarithm of the IC50 (pIC50) in data set [1] is 6.15; in data set [2], 5.57. Also, the intrinsic clearance (microsomal CLint) in data set [3] was > 300 µL/min/mg.
On the same counts, the results for `CC(=O)CCCCC[C@H](NC(=O)C1CCCN(C)C1)c1ncc(-c2ccccc2)[nH]1` (stereo not given in full) are 6.66, 6.40 and 154 µL/min/mg.
`CC(=O)CCCCC[C@H](NC(=O)C1CCN(C)CC1)c1ncc(-c2ccccc2Cl)[nH]1`: the pIC50 is 6.74 in data set [1] and 5.89 in data set [2].
Consider `CC(=O)CCCCC[C@H](NC(=O)C1CCN(C)CC1)c1ncc(-c2ccc(-c3ccccc3)cc2)[nH]1`, for which the pIC50 in data set [1] was 7.30; in data set [2], 6.41. Further, in data set [3], the microsomal CLint was found to be 170 µL/min/mg.
On the same counts, the results for `CC(=O)CCCCC[C@H](NC(=O)C1CCN(C)CC1)c1ncc(-c2ccccc2)[nH]1` are 6.60, 6.01 and 68 µL/min/mg.
As for `CC(=O)CCCCC[C@H](NC(=O)C1CCN(C)CC1)c1ncc(-c2csc3ccccc23)[nH]1`, the results for the pIC50 in data set [1] and in data set [2] were 6.74 and 5.89, respectively.
With `CC(=O)CCCCC[C@H](NC(=O)CCN1CCCCC1)c1ncc(-c2ccccc2)[nH]1`, the negative logarithm of the IC50 (pIC50) was 6.72 in data set [1] and 5.89 in data set [2]. Besides, the microsomal CLint in data set [3] is > 300 µL/min/mg.
In the case of `CC(=O)CCCCC[C@H](NS(=O)(=O)c1ccc([N+](=O)[O-])c(F)c1)c1ncc(-c2ccccc2)[nH]1`, the pIC50 was 6.89 in data set [1] and 6.00 in data set [2].
In the case of `CC(=O)CCCCC[C@H](NC(=O)C1CCN(C)C1)c1ncc(-c2ccccc2)[nH]1` (stereo not given in full), the pIC50 in data set [1] was 6.55; in data set [2], 5.96. For the same molecule, in data set [3], the microsomal CLint was 501 µL/min/mg.
Regarding `CC(=O)CCCCC[C@H](NS(=O)(=O)c1ccc(C#N)cc1)c1ncc(-c2ccccc2)[nH]1`, the pIC50 in data set [1] is 6.74; in data set [2], 5.92.
In the same order, the values of `CC(=O)CCCCC[C@H](NS(=O)(=O)c1cccc([N+](=O)[O-])c1)c1ncc(-c2ccccc2)[nH]1` are 7.26 and 5.89.
In the same order, the values of `CC(=O)CCCCC[C@H](NC(=O)C1CCN(C)CC1)c1ncc(-c2cccc(C#N)c2)[nH]1` are 6.32 and 5.81.
